Assay results: ChEMBL document CHEMBL3507680, “University of Dundee, Gates Library screen for HepG2 cell viability”

test: Human HepG2 cell viability assay in 384 well format; format: toxicity, cell-based; parameters: dose 125 nL, time 70.5 hour; cytotoxicity at 70.5 h: concentration not given beside the values; settings: HepG2 cells, read-out: Inhibition

**Q.** With `O=C(OCc1ccccc1)N1CC[C@H]2CC(CO)O[C@@H]2C1` (stereo not given in full) as the compound, how does the cytotoxicity at 70.5 h read?
**A.** 4.61%

**Q.** With `Cc1ccc(N2CCCC3(CCN(C(=O)c4sccc4C)C3)C2)nn1` (stereo not given) as the compound, how does the cytotoxicity at 70.5 h read?
**A.** -4.03%

**Q.** With `CNC(=O)[C@H]1C[C@@H]2CN(C(=O)c3ccncc3F)C[C@@H]2N1C` as the compound, how does the cytotoxicity at 70.5 h read?
**A.** -16.9%

**Q.** Which cytotoxicity at 70.5 h does the source give for `Cc1ccc(N2CCCC3(CCN(C(=O)NC4CCCC4)C3)C2)nn1` (stereo not given) here?
**A.** -12.8%

**Q.** With `Cc1ccc(C(=O)N2CCC3(CCCN(c4ccc(C)nn4)C3)C2)cn1` (stereo not given) as the compound, how does the cytotoxicity at 70.5 h read?
**A.** -10.8%

**Q.** For `COCC1CN(C(=O)CC2=CCCCC2)Cc2nnn(CC3CC3)c21` (stereo not given), which cytotoxicity at 70.5 h is on record?
**A.** -12%

**Q.** Which cytotoxicity at 70.5 h does the source give for `Cc1nc(N2CCOCC2)nc2c1CCN(C(=O)C1(C#N)CC1)CC2` here?
**A.** -9.06%

**Q.** For `O=C([C@@H]1CCO[C@@H]2CCN(CC3CCOCC3)C[C@H]21)N1CCCC1`, which cytotoxicity at 70.5 h is on record?
**A.** -12.7%

**Q.** Which cytotoxicity at 70.5 h does the source give for `CC(C)NC(=O)N1CCC2(CC1)CC[C@@]1(C(=O)N(C)C)CN(C)C[C@@H]21` here?
**A.** -11.9%

**Q.** Which cytotoxicity at 70.5 h does the source give for `Cc1nc([C@H]2C[C@@H]3CCN(Cc4ccc5c(c4)OCO5)C[C@H]3O2)no1` here?
**A.** -12.3%

**Q.** Which cytotoxicity at 70.5 h does the source give for `Cc1csc(CN2C[C@@H]3CN(S(C)(=O)=O)CCO[C@@H]3C2)n1` here?
**A.** 5.33%

**Q.** Which cytotoxicity at 70.5 h does the source give for `Cn1cccc1C(=O)N1C[C@H]2CN(CC3CC3)C(=O)[C@H]2C1` here?
**A.** 6.81%

**Q.** Which cytotoxicity at 70.5 h does the source give for `COCCn1c2c(ccc1=O)CC(NC(=O)c1cscn1)CC2` (stereo not given) here?
**A.** -4.76%

**Q.** For `O=C1NCCO[C@H]2CN(C(=O)CC3Cc4ccccc4C3)CC[C@@H]12`, which cytotoxicity at 70.5 h is on record?
**A.** -9.87%

**Q.** For `CC(C)CN1C[C@@H]2CN(C(=O)c3cccn3C)C[C@@H]2C1=O`, which cytotoxicity at 70.5 h is on record?
**A.** -7.2%

**Q.** For `CC(C)CN1C(=O)CO[C@@H]2CNC[C@H]21`, which cytotoxicity at 70.5 h is on record?
**A.** -10.3%

**Q.** With `COc1cc(N2CCCC3(CCN(c4cncnc4)C3=O)C2)ncn1` (stereo not given) as the compound, how does the cytotoxicity at 70.5 h read?
**A.** -7.92%

**Q.** For `CCS(=O)(=O)NCC1Cn2nnc(-c3cccc(C)c3)c2CO1` (stereo not given), which cytotoxicity at 70.5 h is on record?
**A.** -5.93%

**Q.** For `CC(=O)N1CCCC2(CCN(c3nncs3)C2)C1` (stereo not given), which cytotoxicity at 70.5 h is on record?
**A.** -4.07%

**Q.** With `Cc1nc(CN(C)C(=O)C2CCC(=O)N(CCN(C)C)C2)cs1` (stereo not given) as the compound, how does the cytotoxicity at 70.5 h read?
**A.** 11.1%

**Q.** With `O=C(NCc1ccco1)N1CCC(n2cc(-c3ccccn3)nn2)CC1` as the compound, how does the cytotoxicity at 70.5 h read?
**A.** 0.624%

**Q.** With `Cc1nc(CN2CCCCC2CCc2ccc(O)cc2)co1` (stereo not given) as the compound, how does the cytotoxicity at 70.5 h read?
**A.** -6.18%

**Q.** With `CN(Cc1cn[nH]c1-c1ccc(F)cc1)C(=O)CCC1CC1` as the compound, how does the cytotoxicity at 70.5 h read?
**A.** -13.8%

**Q.** For `O=C(O)C(c1cccc2c1OCC2)N1CCC(N2CCCC2)CC1` (stereo not given), which cytotoxicity at 70.5 h is on record?
**A.** -0.16%

**Q.** Which cytotoxicity at 70.5 h does the source give for `CC(C)c1cc(C2CCN(C(=O)Cn3nc4ccccc4n3)CC2)[nH]n1` here?
**A.** -5.96%

**Q.** For `COc1ccc([C@@H]2CN(c3cc(OC)ncn3)C[C@H]2N(C)C)cc1`, which cytotoxicity at 70.5 h is on record?
**A.** 22.1%

**Q.** For `Cc1cc(C)nc(CN(C)c2nc(C3CCCC3)nc3c2cnn3C)c1`, which cytotoxicity at 70.5 h is on record?
**A.** -9.74%

**Q.** For `COCCCC1(C(=O)O)CCCN(C(=O)c2ccc(Cl)cc2F)C1` (stereo not given), which cytotoxicity at 70.5 h is on record?
**A.** -10.9%

**Q.** With `Cc1cc(N(C)CCC(O)c2ccccc2)n2nccc2n1` (stereo not given) as the compound, how does the cytotoxicity at 70.5 h read?
**A.** -3.24%

**Q.** For `Cc1cnc(C(=O)N2CCCCC2c2ccc(CN(C)C)cc2)cn1` (stereo not given), which cytotoxicity at 70.5 h is on record?
**A.** 8.8%

**Q.** For `Cc1nc2ccccn2c1CN1C[C@@H](CN(C)C)[C@@H](CO)C1`, which cytotoxicity at 70.5 h is on record?
**A.** -6.27%

**Q.** With `NC(=O)Cn1ccnc1C1CCCN(Cc2cccc(Cl)c2F)C1` (stereo not given) as the compound, how does the cytotoxicity at 70.5 h read?
**A.** -11.7%

**Q.** With `CCn1nc(CC(C)C)cc1C(=O)NCc1c(C)cc(C)nc1OC` as the compound, how does the cytotoxicity at 70.5 h read?
**A.** 2.04%

**Q.** With `O=c1[nH]c(NCc2cccc(OC(F)F)c2)nc2c1CCNC2` as the compound, how does the cytotoxicity at 70.5 h read?
**A.** -23.8%

**Q.** For `COCCc1noc(CN2CC(C)(c3ccccc3)CCC2=O)n1` (stereo not given), which cytotoxicity at 70.5 h is on record?
**A.** -9.17%

**Q.** For `CC(C)Oc1cccc(-c2nc3c([nH]2)CCCNC3=O)c1`, which cytotoxicity at 70.5 h is on record?
**A.** 5.17%

**Q.** Which cytotoxicity at 70.5 h does the source give for `Cc1nccc(N2C[C@@H](CN3CCCC3)[C@@H](CO)C2)n1` here?
**A.** -6.17%

**Q.** For `O=C(C1CC2(CCNCC2)CN1)N1CCN(c2cccc(Cl)c2Cl)CC1` (stereo not given), which cytotoxicity at 70.5 h is on record?
**A.** -1.58%

**Q.** For `Cc1nc(N2CC[C@@H](c3ccc4ccccc4c3)[C@H](O)C2)no1`, which cytotoxicity at 70.5 h is on record?
**A.** 3.2%

**Q.** With `CN(C)Cc1csc(-c2nccn2Cc2ccc(C(=O)O)cc2)c1` as the compound, how does the cytotoxicity at 70.5 h read?
**A.** 19.3%

**Q.** Which cytotoxicity at 70.5 h does the source give for `CC(=O)N[C@@H]1CN(Cc2ccccc2C#N)C[C@H]1c1ccc(C)cc1` here?
**A.** -21.6%

**Q.** With `Cc1nonc1OCCNC(=O)COc1ccc(F)cc1F` as the compound, how does the cytotoxicity at 70.5 h read?
**A.** -12.2%

**Q.** Which cytotoxicity at 70.5 h does the source give for `Cc1nc(CN(C)Cc2nc(-c3ccncc3)no2)co1` here?
**A.** 3.9%

**Q.** With `CCN(CC)C(=O)C1CCC(=O)N(CCc2cccc(F)c2)C1` (stereo not given) as the compound, how does the cytotoxicity at 70.5 h read?
**A.** 19.7%

**Q.** With `COCCN1CCN(C(=O)c2ccc(C)cc2OC)[C@H]2CS(=O)(=O)C[C@H]21` as the compound, how does the cytotoxicity at 70.5 h read?
**A.** -11.7%

**Q.** For `CC(C)CN1C(=O)CC[C@H]2CN(C(=O)Cn3ccc(=O)cc3)CC[C@H]21`, which cytotoxicity at 70.5 h is on record?
**A.** 21.4%

**Q.** With `CC(c1cn2ccsc2n1)N1Cc2ncccc2C1=O` (stereo not given) as the compound, how does the cytotoxicity at 70.5 h read?
**A.** -4.52%

**Q.** For `CC1(C)CCN(S(=O)(=O)N2CCCC(c3cccc(C(=O)O)c3)C2)CC1` (stereo not given), which cytotoxicity at 70.5 h is on record?
**A.** -10.5%

**Q.** For `Cc1nc(C(=O)N2CCN(S(C)(=O)=O)[C@@H]3CS(=O)(=O)C[C@@H]32)cs1`, which cytotoxicity at 70.5 h is on record?
**A.** 1.07%

**Q.** For `c1ccc(CNc2ncc(CN3CCCN4CCC[C@H]4C3)cn2)cc1`, which cytotoxicity at 70.5 h is on record?
**A.** -3.55%

**Q.** With `Cc1nc(CN(Cc2ccncc2)C2CCN(C)CC2)cs1` as the compound, how does the cytotoxicity at 70.5 h read?
**A.** 8.24%

**Q.** Which cytotoxicity at 70.5 h does the source give for `Cn1nnnc1SCCNC(=O)c1cccc2ccnn12` here?
**A.** 3.9%

**Q.** For `CN1C(=O)[C@H]2CC[C@@H]1CN(C(=O)Nc1cccc3ccccc13)C2`, which cytotoxicity at 70.5 h is on record?
**A.** -6.28%

**Q.** For `Cc1noc(-c2ccc(Oc3cccc(CN4CCCC4)c3F)nc2)n1`, which cytotoxicity at 70.5 h is on record?
**A.** 16.7%

**Q.** For `COc1cccc(CNC(=O)N2CCCC(Cn3cc(CN)nn3)C2)c1` (stereo not given), which cytotoxicity at 70.5 h is on record?
**A.** -5.66%

**Q.** For `CNc1nc(C(=O)N2CCCn3nc(C(=O)N4CCCC4)cc3C2)cs1`, which cytotoxicity at 70.5 h is on record?
**A.** -11.2%

**Q.** With `CCN1CCN(C(=O)c2ccc3c(c2)CCCN3)[C@H]2CS(=O)(=O)C[C@H]21` as the compound, how does the cytotoxicity at 70.5 h read?
**A.** -5.32%

**Q.** For `CN(C)C1CC2(CCN(C(=O)C3(C#N)CC3)CC2)c2ccccc21` (stereo not given), which cytotoxicity at 70.5 h is on record?
**A.** -10.7%

**Q.** For `CCN1C[C@H]2C3(CCN(C(=O)NC(C)C)CC3)CC[C@@]2(C(=O)NC)C1`, which cytotoxicity at 70.5 h is on record?
**A.** -11.3%

**Q.** Which cytotoxicity at 70.5 h does the source give for `CCN1C[C@H]2C3(CCN(C(C)=O)CC3)CC[C@@]2(C(=O)N(C)C)C1` here?
**A.** -8.84%

**Q.** With `O=C(c1ccncc1F)N1Cc2nc(COCC3CC3)oc2C1` as the compound, how does the cytotoxicity at 70.5 h read?
**A.** -15.8%

**Q.** Which cytotoxicity at 70.5 h does the source give for `CO[C@@H]1CC[C@H]2[C@H]1OCCN2CCOCc1ccccc1` here?
**A.** -12.3%

**Q.** With `CO[C@H]1CC[C@H]2[C@H]1OCCN2CCOCc1ccccc1` as the compound, how does the cytotoxicity at 70.5 h read?
**A.** -11.7%

**Q.** With `CC(C)N1[C@H](Cn2cncn2)C[C@@H]2CN(Cc3ccsc3)CC[C@@H]21` as the compound, how does the cytotoxicity at 70.5 h read?
**A.** -2.74%

**Q.** Which cytotoxicity at 70.5 h does the source give for `O=C(NC1CC1)N1CCC2(CC1)CC(N1CCOCC1)c1ccccc12` (stereo not given) here?
**A.** -10.8%

**Q.** For `Cc1cccc(CN2CCC3(CCCN(CC(=O)N(C)C)C3)C2)n1` (stereo not given), which cytotoxicity at 70.5 h is on record?
**A.** 7.75%

**Q.** Which cytotoxicity at 70.5 h does the source give for `Cc1ccc(N2CCC3(CC2)CC(OCC(C)C)C3)nn1` here?
**A.** -8.68%

**Q.** With `COCc1n[nH]c2c1CN(Cc1ccccn1)C2` as the compound, how does the cytotoxicity at 70.5 h read?
**A.** -9.17%

**Q.** For `Cc1cnc(N2CCC3(CC2)COCCN(C(C)C)C3)nc1`, which cytotoxicity at 70.5 h is on record?
**A.** -8.08%

**Q.** For `O=C(NCc1cnc2n1CCN(Cc1cccs1)C2)c1ccno1`, which cytotoxicity at 70.5 h is on record?
**A.** 18.9%

**Q.** With `CN1CCO[C@@H]2CN(C(=O)c3ccc4ncccc4c3)CC[C@@H]2C1` as the compound, how does the cytotoxicity at 70.5 h read?
**A.** -8.09%

**Q.** With `CCOCCN1CCO[C@H]2[C@H](OCc3ccccn3)CC[C@@H]21` as the compound, how does the cytotoxicity at 70.5 h read?
**A.** -11%

**Q.** With `COCCN1CCC2(CC1)CC(N1CCOCC1)c1ccc(C)cc12` (stereo not given) as the compound, how does the cytotoxicity at 70.5 h read?
**A.** -8.53%

**Q.** With `O=C(Nc1cccnc1)[C@H]1CN(Cc2ccccn2)C[C@H]2OCC[C@@H]12` as the compound, how does the cytotoxicity at 70.5 h read?
**A.** -7.69%

**Q.** Which cytotoxicity at 70.5 h does the source give for `c1cncc(OCc2n[nH]c3c2CN(Cc2cccs2)C3)c1` here?
**A.** -6.87%
